# Laboratory results taken from patent publication US11207299B2, “Biphenyl sulfonamide compounds for the treatment of type IV collagen diseases” (Travere Therapeutics, Inc., priority 2018, dated 2021).
# Entries after “also recorded” stand apart in the source; their conditions may differ.
# System: autosomal Alport mice (COL4A3^−/−)
# Experiment: Pilot study: dose-dependent effects of sparsentan in Alport mice treated from 3-7 weeks of age
# Format: in vivo, mouse
# Conditions: for SBP / UP/C / DBP / Sclerotic Glomeruli (%) / BUN / Fibrosis Score: mean ± SD; for Sclerotic Glomeruli (%): fibronectin staining; for Fibrosis Score: at 7 wk, COL1-positive cortical area scored 0=<5% to 5=75-100%
# Description: Vehicle or sparsentan was given daily by oral gavage to autosomal Alport mice (COL4A3^−/−) on the 129/Sv background (male and female) in five separate studies: a pilot study, an early intervention study (treated from 3-7 weeks of age), a late intervention study (treated from 5-7 weeks of age after the onset of glomerular (GM) changes), a lifespan study, and a hearing study (FIG. 1). The early intervention, late intervention, lifespan, and hearing studies also included mice treated with a comparator, losartan, which was given orally at 3-4 weeks of age in the early intervention study, in drinking water at 4-7 weeks of age in the early intervention study, and in drinking water at 5-7 weeks in the late intervention study.
# Efficacy renal endpoints included blood urea nitrogen (BUN), proteinuria (urine protein to creatinine ratio, or UP/C), glomerulosclerosis, tubulointerstitial fibrosis, leucocyte infiltration, and glomerular basement morphology (GBM) using transmission electron microscopy (TEM). Endpoints in the inner ear included auditory brain stem response (ABR) threshold as a measure of noise-induced hearing loss, strial capillary basement membrane thickness, and inner ear pathology by TEM.
# In the pilot study, designed to determine an optimal efficacious dose of sparsentan, Alport mice (3-4 per group) were dosed with vehicle (0.5% methylcellulose 4000 cps/0.25% Tween® 80 in distilled water) or sparsentan at 60 mg/kg or 200 mg/kg from 3 to 7 weeks of age for 28 days. Although 200 mg/kg sparsentan was efficacious in the pilot study, BUN levels were higher than those of Alport mice dosed with 60 mg/kg sparsentan (Table 1; FIG. 2A; FIG. 2B). This observation led to the selection of a 120 mg/kg dose of sparsentan to take forward into the early intervention study. During the pilot study, blood pressure (BP) was measured weekly using the CODA2 tail cuff system. Stria from this pilot study were also examined by immunofluorescence using antibodies to laminin α2
# For the pilot, early intervention, late intervention, and lifespan studies, spot urine was sampled pre-study and weekly during treatment and analyzed for protein (UP) and creatinine (C) to determine proteinuria (UP/C). At the end of each study the animals were euthanized, blood samples were taken, BUN was measured from serum, and kidneys were harvested for structural and immuno-fluorescent measurements. Glomerulosclerosis was assessed by immunofluorescence (IF) using an antibody to fibronectin (FN). Visual counting of the number of sclerotic glomeruli as a proportion of the total number of glomeruli per slide was used to calculate the percentage of sclerotic glomeruli. Sections were co-stained with an anti-CD45 antibody to indicate leucocyte infiltration. Tubulointerstitial fibrosis was determined by IF of kidney sections using an antibody to collagen 1 (COL1). Tubulointerstitial fibrosis (TIF) scoring was conducted by visual assessment of the COL1 positive area as a percentage of the total cortical area and was performed blinded. The fibrosis scoring (“Fibrosis Score”) was categorized according to visual judgment of percentage of total cortical area, as: 0=<5%, 1=5-10%, 2=10-25%, 3=25-50%, 4=50-75%, or 5=75-100%. Ultrastructural changes in GBM and podocyte morphology were observed using transmission electron microscopy (TEM).
# [1] = Alport mice, sparsentan 60 mg/kg, at 5 wk of age
# [2] = Alport mice, sparsentan 60 mg/kg, at 6 wk of age
# [3] = Alport mice, sparsentan 60 mg/kg, at 7 wk of age
# [4] = Alport mice, sparsentan 200 mg/kg, at 5 wk of age
# [5] = Alport mice, sparsentan 200 mg/kg, at 6 wk of age
# [6] = Alport mice, sparsentan 200 mg/kg, at 7 wk of age
compound,measurement,setting,value
CCCCC1=NC2(CCCC2)C(=O)N1Cc1ccc(-c2ccccc2S(=O)(=O)Nc2noc(C)c2C)c(COCC)c1 [sparsentan],BUN levels after 200 mg/kg compared to 60 mg/kg sparsentan,"Alport mice, 7 weeks of age, 4 weeks of dosing",elevated
same,SBP,"Alport mice, sparsentan 60 mg/kg oral daily from 3 wk, at 5 wk of age, n = 4",114.0 ± 13.0 mmHg
same,UP/C,"Alport mice, sparsentan 60 mg/kg, at 4 wk of age",3.4 ± 2.6 mg/mg
same,DBP,[1],71.1 ± 10.7 mm/Hg
same,UP/C,[1],8.6 ± 2.4 mg/mg
same,DBP,[2],72.9 ± 9.6 mm/Hg
same,SBP,[2],106.2 ± 6.9 mmHg
same,UP/C,[2],1.5 ± 1.5 mg/mg
same,Sclerotic Glomeruli (%),[3],3.5±1.6%
same,BUN,[3],17.1 ± 1.5 mg/dL
same,DBP,[3],78.1 ± 14.7 mm/Hg
same,SBP,[3],117.6 ± 4.6 mmHg
same,UP/C,[3],5.6 ± 3.0 mg/mg
same,Fibrosis Score,"Alport mice, sparsentan 60 mg/kg",0.0 ± 0.0
same,SBP,"Alport mice, sparsentan 200 mg/kg oral daily from 3 wk, at 5 wk of age, n = 3",110.6 ± 21.8 mmHg
same,UP/C,"Alport mice, sparsentan 200 mg/kg, at 4 wk of age",2.1 ± 3.7 mg/mg
same,DBP,[4],99.7 ± 7.7 mm/Hg
same,UP/C,[4],3.9 ± 3.5 mg/mg
same,DBP,[5],74.6 ± 21.4 mm/Hg
same,SBP,[5],108.7 ± 26.4 mmHg
same,UP/C,[5],1.5 ± 2.7 mg/mg
same,Sclerotic Glomeruli (%),[6],1.4±1.3%
same,BUN,[6],25.9 ± 7.7 mg/dL
same,DBP,[6],91.7 ± 20.0 mm/Hg
same,SBP,[6],122 ± 20.9 mmHg
same,UP/C,[6],0.8 ± 1.4 mg/mg
same,Fibrosis Score,"Alport mice, sparsentan 200 mg/kg",0.0 ± 0.0
same,"Prevention of UP/C, glomerulosclerosis, and fibrosis compared to vehicle-treated mice","sparsentan 60 and 200 mg/kg, 3-7 weeks of age",prevented an increase in glomerulosclerosis in a dose-dependent manner; also recorded: dose-dependent prevention
same,Systolic and diastolic blood pressure compared to vehicle-treated Alport mice,"sparsentan 60 or 200 mg/kg, 6 weeks of age (3 weeks of dosing)",significantly lower
same,COL1 immunoreactivity,"sparsentan-treated Alport mice, pilot study, kidney sections",absent
same,BP compared to vehicle-treated Alport mice,"sparsentan, end of pilot study (7 weeks of age; 4 weeks of dosing)",no difference
